Test results as given in patent US20090226392A1, “Phosphate-Binding Polymers for Oral Administration” (priority 1993, published 2009).

Test: Phosphate binding test: polymer stirred in phosphate containing solution at pH 7 for 3 hours
Procedure: Candidate polymers were tested by stirring them in a phosphate containing solution at pH 7 for 3 hours. The solution was designed to mimic the conditions present in the small intestine.
The pH was adjusted to pH 7, once at the start of the test and again at the end of the test, using either aqueous NaOH or HCl. After 3 hours the polymer was filtered off and the residual phosphate concentration in the test solution was determined spectrophotometrically. The difference between the initial phosphate concentration and the final concentration was used to determine the amount of phosphate bound to the polymer.

SMILES | Phosphate Bound (pH 7) | Phosphate Bound (Table 2, other materials, pH 7, 3 hours, residual solution phosphate ~5 mM)
[Ca+2].[Cl-].[Cl-] [Calcium Chloride] | 4.0 meq/g | 
CC(O)C(=O)[O-].CC(O)C(=O)[O-].[Ca+2] (centres unmarked) [Calcium Lactate] |  | 2.4 meq/g
